Results: patent publication US20240382607A1 (priority 2021, published 2024)

How the values were obtained:
[1] = tested on: SKBR3 tumor cells (HER2+); test: In vitro cytotoxic activity screening, CTG assay, SKBR3; type: cell-based
Description: (§1) In this experiment, the ATP content was determined using CTG to reflect the survival condition of the tumor cells. […] The killing effect of the toxin molecule was then assayed according to this condition.
(§2) According to the purpose of the experiment, two disease models of breast cancer and NSCLC were selected, and three cell strains of SKBR3 tumor cells (HER2+, ATCC, Cat #HTB-30), MDA-MB-468 (HER2-, ATCC, Cat #HTB-132) and A549 (human non-small cell lung cancer cells, ATCC, Cat #CCL-185) were selected for screening.
(§3) The cells were counted, and 4.3×10^5, 7.2×10^5 and 11.5×10^5 cells were each added to a culture solution to give a final volume of 26 mL. 180 μL of cell suspension was added to each well in columns 2 to 11 of a 96-well plate (Corning, Cat #3903) to give cell densities of 3K, 5K and 8K per well. Wells in column 12 were each filled with 200 μL of culture solution and the remaining wells were each filled with PBS. The SKBR3 and MDA-MB-468 cells were subjected to the same operations described above. […] 2 mM stock solution (stock solution diluted 10-fold in DMSO) was prepared in column 1 of drug preparation plate 1, and then 10-fold gradient dilution in DMSO was performed through column 10, and the wells in column 11 were filled with DMSO. […] The absorption value was read using a microplate reader and IC50 was calculated.

MDA-MB-468 (HER2-) = test: In vitro cytotoxic activity screening, CTG assay, MDA-MB-468; type: cell-based
Description: as §1, §2, §3

[2] = tested on: A549 (human non-small cell lung cancer cells); test: In vitro cytotoxic activity screening, CTG assay, A549; type: cell-based
Description: as §1, §2, §3

[3] = Pharmacokinetic experiment for beagles, intravenous administration; conditions: 0.5 mg/kg
Description: (§4) Plasma samples were stored in a refrigerator at −80° C. prior to testing.
as §4

## C=C1C[C@@H]2CC[C@@]34C[C@H]5O[C@H]6[C@@H](O3)[C@H]3O[C@H](CC[C@@H]3O[C@H]6[C@H]5O4)CC(=O)C[C@@H]3[C@@H](OC)[C@@H](C[C@@H](CN)OC)O[C@H]3C[C@H]3O[C@@H](CC[C@@H]1O2)C[C@@H](C)C3=C [Compound 1]
[1]; Homo sapiens, SK-BR-3, read-out: IC50 (nM) SKBR3
  IC50: 0.205 nM
[1]; SKBR3, CTG
  Maximum inhibition rate (%) SKBR3: 96.87%
MDA-MB-468 (HER2-); Homo sapiens, MDA-MB-468, read-out: IC50 (nM) MDA-MB-468
  IC50: 0.183 nM
MDA-MB-468 (HER2-); MDA-MB-468, CTG
  Maximum inhibition rate (%) MDA-MB-468: 88.01%
[2]; A549, CTG
  Maximum inhibition rate (%) A549: 81.34%
[2]; Homo sapiens, A549, read-out: IC50 (nM) A549
  IC50: 0.515 nM
[3]
  Plasma concentration C5 min: 82.1 ng/mL
